Source: article PMC4143601 (Cancer Chemotherapy and Pharmacology, 2014)
Entries after “also recorded” stand apart in the source; their conditions may differ. Where two headings read alike, the source gives them in different places.

How the values were obtained:
advanced solid tumors = experiment: Tumor response, best overall response (RECIST version 1.0); format: in vivo, human (Japanese patients)
Protocol: (§1) The starting dose was 8 mg/m^2, and treatment cycles were 28 days. Intra-patient dose escalation was not permitted. An adaptive Bayesian logistic regression model (BLRM), guided by the escalation with overdose control (EWOC) principle, was used to guide dose escalations. The EWOC principle mandates the potential doses recommended for the next cohort and the estimated MTD have less than 25 % posterior probability of DLT in the excessive toxicity interval (33, 100 %). […] The occurrence of DLTs was evaluated during Cycle 1. A minimum of three patients were enrolled in a cohort, and the estimated MTD was continuously updated using the BLRM, and a minimum of six patients were planned to be enrolled at the MTD level. […] A minimum of 15 patients were required for the BLRM model to determine the MTD. […] Doses were individually adjusted according to body surface area measured at baseline.
(§2) Toxicity was graded according to the National Cancer Institute Common Toxicity Criteria version 3.0. […] Tumor response was assessed by computed tomography or magnetic resonance imaging, and using Response Evaluation Criteria in Solid Tumors version 1.0 for efficacy evaluations.

[1] = Pharmacokinetics of AUY922 and its glucuronide metabolite BJP762 in blood (LC-MS/MS, non-compartmental); format: in vivo, human (Japanese patients with advanced solid tumors); conditions: for half-life / Tmax / AUC(0-inf) / AUC(0-t) / Cmax / clearance / Vd: human; for half-life / Tmax: blood; for Tmax: read-out: T max [median (range)]; for AUC(0-inf) / AUC(0-t) / Cmax / clearance / Vd: whole blood; for Vd: read-out: Vz
Protocol: Intra-patient dose escalation was not permitted. […] The occurrence of DLTs was evaluated during Cycle 1.

[2] = Protocol: Inclusion criteria included Eastern Cooperative Oncology Group performance status ≤2 and life expectancy ≥12 weeks.
as §1, §2
The DDS was used for the BLRM analyses in the determination of MTD.

Structure (SMILES): CCNC(=O)c1noc(-c2cc(C(C)C)c(O)cc2O)c1-c1ccc(CN2CCOCC2)cc1 [AUY922, 5-[2,4-dihydroxy-5-isopropyl-phenyl]-N-ethyl-4-[4-(morpholinomethyl)phenyl]isoxazole-3-carboxamide]
- Best overall response: Complete response (advanced solid tumors; 8 mg/m^2 (n = 3)): 0 n
- Best overall response: Partial response (advanced solid tumors; 8 mg/m^2 (n = 3)): 0 n
- Best overall response: Progressive disease (advanced solid tumors; 8 mg/m^2 (n = 3)): 2 n
- Best overall response: Stable disease (advanced solid tumors; 8 mg/m^2 (n = 3)): 1 n
- Best overall response: Unknown (advanced solid tumors; 8 mg/m^2 (n = 3)): 0 n
- Disease control rate (CR + PR + SD) (advanced solid tumors; 8 mg/m^2 (n = 3)): 1 n
- Overall response rate (CR + PR) (advanced solid tumors; 8 mg/m^2 (n = 3)): 0 n
- Best overall response: Complete response (advanced solid tumors; 16 mg/m^2 (n = 3)): 0 n
- Best overall response: Partial response (advanced solid tumors; 16 mg/m^2 (n = 3)): 0 n
- Best overall response: Progressive disease (advanced solid tumors; 16 mg/m^2 (n = 3)): 2 n
- Best overall response: Stable disease (advanced solid tumors; 16 mg/m^2 (n = 3)): 1 n
- Best overall response: Unknown (advanced solid tumors; 16 mg/m^2 (n = 3)): 0 n
- Disease control rate (CR + PR + SD) (advanced solid tumors; 16 mg/m^2 (n = 3)): 1 n
- Overall response rate (CR + PR) (advanced solid tumors; 16 mg/m^2 (n = 3)): 0 n
- Best overall response: Complete response (advanced solid tumors; 22 mg/m^2 (n = 3)): 0 n
- Best overall response: Partial response (advanced solid tumors; 22 mg/m^2 (n = 3)): 0 n
- Best overall response: Progressive disease (advanced solid tumors; 22 mg/m^2 (n = 3)): 3 n
- Best overall response: Stable disease (advanced solid tumors; 22 mg/m^2 (n = 3)): 0 n
- Best overall response: Unknown (advanced solid tumors; 22 mg/m^2 (n = 3)): 0 n
- Disease control rate (CR + PR + SD) (advanced solid tumors; 22 mg/m^2 (n = 3)): 0 n
- Overall response rate (CR + PR) (advanced solid tumors; 22 mg/m^2 (n = 3)): 0 n
- Best overall response: Complete response (advanced solid tumors; 28 mg/m^2 (n = 5)): 0 n
- Best overall response: Partial response (advanced solid tumors; 28 mg/m^2 (n = 5)): 0 n
- Best overall response: Progressive disease (advanced solid tumors; 28 mg/m^2 (n = 5)): 4 n
- Best overall response: Stable disease (advanced solid tumors; 28 mg/m^2 (n = 5)): 1 n
- Best overall response: Unknown (advanced solid tumors; 28 mg/m^2 (n = 5)): 0 n
- Disease control rate (CR + PR + SD) (advanced solid tumors; 28 mg/m^2 (n = 5)): 1 n
- Overall response rate (CR + PR) (advanced solid tumors; 28 mg/m^2 (n = 5)): 0 n
- Best overall response: Complete response (advanced solid tumors; 40 mg/m^2 (n = 3)): 0 n
- Best overall response: Partial response (advanced solid tumors; 40 mg/m^2 (n = 3)): 0 n
- Best overall response: Progressive disease (advanced solid tumors; 40 mg/m^2 (n = 3)): 2 n
- Best overall response: Stable disease (advanced solid tumors; 40 mg/m^2 (n = 3)): 1 n
- Best overall response: Unknown (advanced solid tumors; 40 mg/m^2 (n = 3)): 0 n
- Disease control rate (CR + PR + SD) (advanced solid tumors; 40 mg/m^2 (n = 3)): 1 n
- Overall response rate (CR + PR) (advanced solid tumors; 40 mg/m^2 (n = 3)): 0 n
- Best overall response: Complete response (advanced solid tumors; 54 mg/m^2 (n = 6)): 0 n
- Best overall response: Partial response (advanced solid tumors; 54 mg/m^2 (n = 6)): 1 n
- Best overall response: Progressive disease (advanced solid tumors; 54 mg/m^2 (n = 6)): 3 n
- Best overall response: Stable disease (advanced solid tumors; 54 mg/m^2 (n = 6)): 1 n
- Best overall response: Unknown (advanced solid tumors; 54 mg/m^2 (n = 6)): 1 n
- Disease control rate (CR + PR + SD) (advanced solid tumors; 54 mg/m^2 (n = 6)): 2 n
- Overall response rate (CR + PR) (advanced solid tumors; 54 mg/m^2 (n = 6)): 1 n
- Best overall response: Complete response (advanced solid tumors; 70 mg/m^2 (n = 8)): 0 n
- Best overall response: Partial response (advanced solid tumors; 70 mg/m^2 (n = 8)): 0 n
- Best overall response: Progressive disease (advanced solid tumors; 70 mg/m^2 (n = 8)): 3 n
- Best overall response: Stable disease (advanced solid tumors; 70 mg/m^2 (n = 8)): 5 n
- Best overall response: Unknown (advanced solid tumors; 70 mg/m^2 (n = 8)): 0 n
- Disease control rate (CR + PR + SD) (advanced solid tumors; 70 mg/m^2 (n = 8)): 5 n
- Overall response rate (CR + PR) (advanced solid tumors; 70 mg/m^2 (n = 8)): 0 n
- Patients with best overall response of stable disease (advanced solid tumors; 70-mg/m^2 cohort, five out of the eight patients): 63%
- Best overall response: Complete response (advanced solid tumors; Total, all doses (N = 31)): 0 n (%)
- Best overall response: Partial response (advanced solid tumors; Total, all doses (N = 31)): 1 (3) n (%)
- Best overall response: Progressive disease (advanced solid tumors; Total, all doses (N = 31)): 19 (61) n (%)
- Best overall response: Stable disease (advanced solid tumors; Total, all doses (N = 31)): 10 (32) n (%)
- Best overall response: Unknown (advanced solid tumors; Total, all doses (N = 31)): 1 (3) n (%)
- Disease control rate (CR + PR + SD) (advanced solid tumors; Total, all doses (N = 31)): 11 (36) n (%)
- Overall response rate (CR + PR) (advanced solid tumors; Total, all doses (N = 31)): 1 (3) n (%)
- Disease control rate (DCR; PR + SD) (advanced solid tumors; across all dose levels): 36%
- Complete response (advanced solid tumors; all doses): no patients achieved a complete response
- Patients with confirmed partial response (advanced solid tumors; all doses (N = 31), one patient): 3%
- Patients with best overall response of stable disease (advanced solid tumors; all doses (N = 31), ten patients, SD lasting ≥8 weeks): 32%
- Duration of confirmed partial response (advanced solid tumors; one patient, rectal carcinoid tumor with lung metastatic lesions, 54 mg/m^2): > 7 months
- Dose proportionality of C max in blood ([1]; entire dose range 8–70 mg/m^2): generally increased in a dose-proportional manner; also recorded: increased generally in a dose-proportional manner
- half-life ([1]; intravenous, 8 mg/m2): 64 h
- half-life ([1]; iv, 28 mg/m2): 98.7 ± 23 h
- Tmax ([1]; iv, 28 mg/m2): 0.5 h
- half-life ([1]; iv, 40 mg/m2): 123 ± 40.8 h
- Tmax ([1]; iv, 40 mg/m2): 1.05 h
- half-life ([1]; iv, 54 mg/m2): 120 ± 28.5 h
- Tmax ([1]; iv, 54 mg/m2): 0.76 h
- half-life ([1]; iv, 70 mg/m2): 127 ± 18.8 h
- Tmax ([1]; iv, 70 mg/m2): 1.02 h
- AUC(0-inf) ([1]; iv, 28 mg/m2): 9550 ng·h/mL
- AUC(0-t) ([1]; iv, 28 mg/m2): 6810 ng·h/mL
- Cmax ([1]; iv, 28 mg/m2): 457 ± 101 ng/mL
- clearance ([1]; iv, 28 mg/m2): 79.8 mL/min
- Vd ([1]; iv, 28 mg/m2): 646 ± 111 L
- AUC(0-inf) ([1]; iv, 40 mg/m2): 11400 ng·h/mL
- AUC(0-t) ([1]; iv, 40 mg/m2): 6960 ng·h/mL
- Cmax ([1]; iv, 40 mg/m2): 710 ± 42 ng/mL
- clearance ([1]; iv, 40 mg/m2): 95.7 mL/min
- Vd ([1]; iv, 40 mg/m2): 980 ± 132 L
- AUC(0-inf) ([1]; iv, 54 mg/m2): 12300 ng·h/mL
- AUC(0-t) ([1]; iv, 54 mg/m2): 8880 ng·h/mL
- Cmax ([1]; iv, 54 mg/m2): 1050 ng/mL
- clearance ([1]; iv, 54 mg/m2): 121 mL/min
- Vd ([1]; iv, 54 mg/m2): 1190 L
- AUC(0-inf) ([1]; iv, 70 mg/m2): 12600 ng·h/mL
- AUC(0-t) ([1]; iv, 70 mg/m2): 8540 ng·h/mL
- Cmax ([1]; iv, 70 mg/m2): 1100 ng/mL
- clearance ([1]; iv, 70 mg/m2): 143 mL/min
- Vd ([1]; iv, 70 mg/m2): 1570 L
- Dose dependence of AUClast in blood ([1]; increased with dose from 8 to 28 mg/m^2): saturated at higher dose levels; also recorded: saturated at higher doses
- Maximum tolerated dose (MTD) ([2]; IV once-weekly, 8–70 mg/m^2 tested): No MTD was determined; also recorded: the MTD was not determined; also recorded: The MTD was not established
- Diarrhea, AE regardless of relationship to study drug ([2]; human, in vivo): 65%
- Fatigue, AE regardless of relationship to study drug ([2]; human, in vivo): 29%
- Nausea, AE regardless of relationship to study drug ([2]; human, in vivo): 29%
- Night blindness, AE regardless of relationship to study drug ([2]; human, in vivo): 42%
- Patients with AEs requiring dose modification or interruption ([2]; human, in vivo): 48%
- Patients with serious AEs (SAEs) ([2]; human, in vivo): 26%
- Patients who experienced DLTs ([2]; human, in vivo, 28 days): 3.6%
- Recommended Phase II dose (RP2D) ([2]; human, in vivo, iv): 70 mg/m^2
- Patients discontinued as a result of AEs related to study drug ([2]; in vivo): two patients
- Patients with SAEs considered to be related to the study drug ([2]; in vivo): two patients
